Values quoted from earlier work, collected in patent US10799449B2, “Medicinal delivery system and related methods” (JSRNTI, LLC, priority 2006, dated 2020).

Assays:
[1] = in water

Solubility [1]	Molecule	also measured
55 grams/100 grams water	OC[C@@H](O)[C@@H](O[C@@H]1O[C@H](CO)[C@H](O)[C@H](O)[C@H]1O)[C@H](O)[C@@H](O)CO [Lactitol]	
23 grams/100 grams water	OC[C@@H](O)[C@@H](O)[C@H](O)[C@H](O)CO [Mannitol]	
75 grams/100 grams water	OC[C@@H](O)[C@@H](O)[C@H](O)[C@@H](O)CO [Sorbitol]	

Second part, the molecule before the results:

Molecule	Solubility [1]	also measured
OC[C@@H](O)[C@@H](O[C@H]1O[C@H](CO)[C@@H](O)[C@H](O)[C@H]1O)[C@H](O)[C@@H](O)CO [Maltitol]	71 grams/100 grams water	
CN1CCCC1c1cccnc1 (stereo not drawn) [Nicotine]		Available nicotine in an un-ionized state (buffered saliva pH of 9.0): approximately 91%; pKa (weak base): approximately 8.0; Available nicotine in the un-ionized form (without buffer, normal saliva pH of 6.5): 3%
OC[C@@H](O)[C@H](O)[C@@H](O)CO [Xylitol]	70 grams/100 grams water	
Isomalt	38 grams/100 grams water	
